From article PMC9883482, “TPX2 enhances the transcription factor activation of PXR and enhances the resistance of hepatocellular carcinoma cells to antitumor drugs” (Cell Death & Disease, 2023)

Tests used:
[1] = test system: MHCC97-H cells; experiment: MTT cell survival examination; type: cell-based; conditions: Homo sapiens, MHCC97H, 48 h
Protocol: (§1) In the process of dissolving these pure drug powders, stirring, vortexing, and ultrasonic vibration were used to assist dissolution [17, 18]. After a drug was fully dissolved, Dulbecco’s modified Eagle’s medium (DMEM) without fetal bovine serum (FBS) was used to dilute the drug dissolved in DMSO. For doxorubicin, we used DMEM without FBS to dissolve the drug. When performing cell viability experiments (tetrazolium [MTT] assays), these drugs were diluted.
(§2) The antitumor activity of antitumor drugs injuring HCC cells was examined by using MTT assay. After culturing the HCC cells, transfection experiments were performed, and the cells were then seeded in 96-well cell culture plates (about 8000 cells per well). […] After the cells were treated with the drug for about 48 h, a dose of […] tetrazolium (MTT) reagent was added, and cells with the MTT reagent were incubated for 5 to 6 h. After incubation with the MTT was complete, all liquid in the 96-well cell culture plate was discarded, and about 100 μl of DMSO was added to each well to dissolve the cell samples. During the process of lysing the cell samples, the cell culture plate was shaken for 15 minutes to completely lyse the cells. After the lysis step was complete, the cell culture plate was centrifuged at 12,000 rpm at 4 °C, and the supernatant was collected for evaluation.
(§3) All statistical analyses in the presence work were performed using the GraphPad 8.0 (GraphPad Software Corporation, Armonk, NY, USA). […] For the survival analysis data, the survival curves were analyzed by the log-rank (Mantel–Cox) test to detect the P-value of the survival curve, the median survival time, and the 95% confidence interval (CI). For the co-relationship analysis, the data were analyzed by linear regression to determine the overall trend of a group of data points. […] If the slope was positive, the horizontal coordinate was positively related to the vertical coordinate, and if the slope was negative, the horizontal coordinate was negatively related to the vertical coordinate. For the multi-grouped data, the ordinary one-way analysis of variance (ANOVA) and multiple comparison methods were used. An ANOVA was used to examine whether any difference between groups could be detected. The multiple comparisons (t-test) was used to detect differences between pairs of data.

[2] = test system: MHCC97-L cells; experiment: MTT cell survival examination; type: cell-based; conditions: Homo sapiens, MHCC97L, 48 h, median (95% CI)
Protocol: as §1, §2, §3

[3] = test system: HepG2 cells; experiment: MTT cell survival examination; type: cell-based; conditions: Homo sapiens, HepG2, 48 h
Protocol: as §1, §2, §3

[4] = test system: cyp3a4 and mdr-1 mRNA (PXR downstream genes); conditions: human
[5] = target: T1, PXR (Homo sapiens, UniProt O75469); conditions: in combination with rifampicin
T1 sequence (O75469 1-434): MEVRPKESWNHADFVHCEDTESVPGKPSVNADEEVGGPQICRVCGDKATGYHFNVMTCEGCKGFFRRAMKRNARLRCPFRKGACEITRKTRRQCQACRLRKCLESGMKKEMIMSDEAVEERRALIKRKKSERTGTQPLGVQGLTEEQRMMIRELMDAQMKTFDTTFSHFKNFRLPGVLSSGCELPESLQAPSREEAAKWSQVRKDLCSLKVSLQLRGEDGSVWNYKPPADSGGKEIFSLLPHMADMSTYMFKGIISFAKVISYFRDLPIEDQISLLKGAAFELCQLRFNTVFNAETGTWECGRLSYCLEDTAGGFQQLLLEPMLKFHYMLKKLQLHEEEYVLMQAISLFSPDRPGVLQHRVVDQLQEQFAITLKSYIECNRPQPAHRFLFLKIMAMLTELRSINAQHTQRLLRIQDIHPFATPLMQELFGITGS

[6] = HepG2, Control, median (95% CI)
[7] = HepG2, TPX2 overexpression, median (95% CI)

| Structure (SMILES) | IC50 ([1]; Control, median (95% CI)) [nM] | IC50 ([1]; siTPX2, median (95% CI)) [nM] | IC50 ([2]; Control) [nM] | IC50 ([2]; TPX2 overexpression) [nM] | IC50 [3, 6] [nM] | IC50 [3, 7] [nM] | IC50 ([3]; HepG2, siTPX2, median (95% CI)) [nM] | effect on rifampicin- and TPX2-induced transcription of PXR downstream genes (mRNA levels) [4] | effect on TPX2/rifampicin-driven PXR recruitment to cyp3a4 promoter or enhancer [5] |
| --- | --- | --- | --- | --- | --- | --- | --- | --- | --- |
| COc1cc2nccc(Oc3ccc(NC(=O)C4(C(=O)Nc5ccc(F)cc5)CC4)cc3)c2cc1OC [cabozantinib] | 760 | 260 | 1470 | 5030 | 880 | 4780 | 390 |  |  |
| COc1cccc2c1C(=O)c1c(O)c3c(c(O)c1C2=O)C[C@@](O)(C(=O)CO)C[C@@H]3O[C@H]1C[C@H](N)[C@H](O)[C@H](C)O1 [doxorubicin] | 200 | 60 | 250 | 820 | 330 | 1590 | 50 |  |  |
| COc1cc([C@@H]2c3cc4c(cc3[C@@H](O[C@@H]3O[C@@H]5CO[C@@H](C)O[C@H]5[C@H](O)[C@H]3O)[C@H]3COC(=O)[C@H]23)OCO4)cc(OC)c1O [etoposide] | 250 | 100 | 380 | 1320 | 460 | 1930 | 180 |  |  |
| CCc1c2c(nc3ccc(OC(=O)N4CCC(N5CCCCC5)CC4)cc13)-c1cc3c(c(=O)n1C2)COC(=O)[C@]3(O)CC [irinotecan] | 520 | 160 | 430 | 970 | 300 | 820 | 100 |  |  |
| CC(=O)N1CCN(c2ccc(OCC3COC(Cn4ccnc4)(c4ccc(Cl)cc4Cl)O3)cc2)CC1 (stereo not drawn) [ketoconazole] |  |  |  |  |  |  |  | almost blocked the effects of rifampicin and TPX2 |  |
| COc1cc2nccc(Oc3ccc(NC(=O)NC4CC4)c(Cl)c3)c2cc1C(N)=O [lenvatinib] | 1070 | 500 | 1940 | 5730 | 1300 | 5890 | 330 |  |  |
| CC(=O)O[C@H]1C(=O)[C@@]2(C)[C@H]([C@H](OC(=O)c3ccccc3)[C@]3(O)C[C@H](OC(=O)[C@H](O)[C@@H](NC(=O)c4ccccc4)c4ccccc4)C(C)=C1C3(C)C)[C@]1(OC(C)=O)CO[C@@H]1C[C@@H]2O [paclitaxel] | 12.7 | 4.2 | 22 | 150 | 14.8 | 240 | 8.31 |  |  |
| CNC(=O)c1cc(Oc2ccc(NC(=O)Nc3ccc(Cl)c(C(F)(F)F)c3)c(F)c2)ccn1 [regorafenib] | 990 | 750 | 1500 | 4930 | 1010 | 3650 | 620 |  |  |
| CC[C@]1(O)C[C@H]2CN(CCc3c([nH]c4ccccc34)[C@@](C(=O)OC)(c3cc4c(cc3OC)N(C=O)[C@H]3[C@@](O)(C(=O)OC)[C@H](OC(C)=O)[C@]5(CC)C=CCN6CC[C@]43[C@@H]65)C2)C1 [vincristine] |  |  |  |  |  |  |  |  | almost blocked |
